Data as given in patent US12281102B2, “Inhibitors of APOL1 and methods of using same” (Vertex Pharmaceuticals Incorporated, priority 2020, dated 2025).
pIC50: −log10 of the molar value.

biological target: T1, G1 APOL1 (Homo sapiens, UniProt O14791, I384M/S342G); assay: Acute APOL1 Thallium Assay with inducible stable clones of HEK 293 cells; format: cell-based; settings: HEK 293 T-Rex inducible stable clone expressing G1 APOL1; read-out: Thallium Assay (IC50)
T1 construct: expressed in transfected cells
T1 sequence (O14791 28-398 S342G/I384M): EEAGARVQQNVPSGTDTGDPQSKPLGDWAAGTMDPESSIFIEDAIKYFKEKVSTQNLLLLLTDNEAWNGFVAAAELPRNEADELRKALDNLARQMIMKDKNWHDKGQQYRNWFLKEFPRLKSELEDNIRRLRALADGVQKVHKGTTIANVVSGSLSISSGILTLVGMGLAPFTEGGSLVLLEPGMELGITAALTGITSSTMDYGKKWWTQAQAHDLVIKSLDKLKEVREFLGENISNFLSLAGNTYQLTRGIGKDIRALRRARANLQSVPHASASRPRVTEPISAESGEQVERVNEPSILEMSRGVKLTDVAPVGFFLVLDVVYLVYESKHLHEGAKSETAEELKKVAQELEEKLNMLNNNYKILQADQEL
Outline: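 A tetracycline-inducible HEK293 T-Rex clone (G1 DC3.25) expressing G1 APOL1 was plated at 26,000 cells/well, with tetracycline added at plating to induce expression. Cells were loaded with an AM-ester thallium-sensitive dye and stimulated with Tl+. Pore activity was read as the FLIPR Tetra fluorescence increase from Tl+ influx.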

First: CC(C)(O)CC(=O)NC1CC(Cc2c(-c3ccc(F)cc3)[nH]c3c(F)cc(F)cc23)C1 (stereo not drawn) [Compound 160, N-[3-[[5,7-difluoro-2-(4-fluorophenyl)-1H-indol-3-yl]methyl]cyclobutyl]-3-hydroxy-3-methylbutanamide]
Second: NC(=O)CC(=O)NC1CC(Cc2c(-c3ccc(F)cc3)[nH]c3c(F)cc(F)cc23)C1 (stereo not drawn) [Compound 165]
The pIC50 of the first is higher: 6.00 to 6.60 for the first, under 6.00 for the second. The first is the more potent here.

`C[C@H](O)C(=O)NC1CC(Cc2c(-c3ccc(F)cc3)[nH]c3c(F)cc(F)cc23)C1` (stereo partly drawn) [Compound 161] and `C[C@H](O)C(=O)NC[C@H]1C[C@H](c2c(-c3ccc(F)cc3)[nH]c3c(F)cc(F)cc32)C1` [Compound 207] fall in the same range of pIC50: 6.00 to 6.60 for the first, 6.00 to 6.60 for the second.

Compared with `Cc1nc[nH]c1C(=O)NC1CC(Cc2c(-c3ccc(F)cc3)[nH]c3c(F)cc(F)cc23)C1` (stereo not drawn) [Compound 162], `Cc1cc[nH]c1C(=O)NC1CC(Cc2c(-c3ccc(F)cc3)[nH]c3c(F)cc(F)cc23)C1` (stereo not drawn) [Compound 171] is lower in pIC50: 6.00 to 6.60 for the first, under 6.00 for the second.

`O=C1NCCC1C(=O)NC1CC(Cc2c(-c3ccc(F)cc3)[nH]c3c(F)cc(F)cc23)C1` (stereo not drawn) [Compound 163] and `O=C1CC(C(=O)NC2CC(Cc3c(-c4ccc(F)cc4)[nH]c4c(F)cc(F)cc34)C2)C(=O)N1` (stereo not drawn) [Compound 167] cannot be ordered by pIC50: under 6.00 for the first, under 6.00 for the second.

`O=C1CC(CC(=O)NC2CC(Cc3c(-c4ccc(F)cc4)[nH]c4c(F)cc(F)cc34)C2)C(=O)N1` (stereo not drawn) [Compound 164] and `O=C(CC1NC(=O)NC1=O)NC1CC(Cc2c(-c3ccc(F)cc3)[nH]c3c(F)cc(F)cc23)C1` (stereo not drawn) [Compound 168] cannot be ordered by pIC50: under 6.00 for the first, under 6.00 for the second.

`O=C(NC1CC(Cc2c(-c3ccc(F)cc3)[nH]c3c(F)cc(F)cc23)C1)c1ccn[nH]1` (stereo not drawn) [Compound 166] and `Cc1ccc(C(=O)NC2CC(Cc3c(-c4ccc(F)cc4)[nH]c4c(F)cc(F)cc34)C2)[nH]1` (stereo not drawn) [Compound 172] cannot be ordered by pIC50: under 6.00 for the first, under 6.00 for the second.

First: O[C@H]1C[C@@H](c2c(-c3ccc(F)cc3)[nH]c3c(F)cc(F)cc32)C1 [Compound 175, (1s,3s)-3-(5,7-difluoro-2-(4-fluorophenyl)-1H-indol-3-yl)cyclobutan-1-ol]
Second: CC(=O)NC[C@H]1C[C@H](c2c(-c3ccc(F)cc3)[nH]c3c(F)cc(F)cc32)C1 [Compound 195]
The pIC50 of the first is lower: 6.00 to 6.60 for the first, over 6.60 for the second.

First: NCC1CC(c2c(-c3ccc(C4CC4)cc3)[nH]c3ccc(F)cc23)C1 (stereo not drawn) [Compound 177]
Second: NCC1CC(c2c(-c3ccc(F)cc3)[nH]c3c(F)cc(C(F)(F)F)cc23)C1 (stereo not drawn) [Compound 178]
The pIC50 of the first is lower: under 6.00 for the first, 6.00 to 6.60 for the second.

`Cc1cc(-c2[nH]c3c(F)cc(F)cc3c2C2CC(CN)C2)ccc1F` (stereo not drawn) [Compound 179] and `NCC(=O)NC[C@H]1C[C@@H](c2c(-c3ccc(F)cc3)[nH]c3c(F)cc(F)cc32)C1` [Compound 190] cannot be ordered by pIC50: over 6.60 for the first, over 6.60 for the second.

First: C[C@H](N)C(=O)NC[C@H]1C[C@H](c2c(-c3ccc(F)cc3)[nH]c3c(F)cc(F)cc32)C1 [Compound 189, (S)-2-amino-N-(((1r,3S)-3-(5,7-difluoro-2-(4-fluorophenyl)-1H-indol-3-yl)cyclobutyl)methyl)propanamide]
Second: C[C@@H](O)C(=O)NC[C@H]1C[C@H](c2c(-c3ccc(F)cc3)[nH]c3c(F)cc(F)cc32)C1 [Compound 211]
The pIC50 of the first is higher: over 6.60 for the first, 6.00 to 6.60 for the second.

`NCC(=O)NC[C@H]1C[C@H](c2c(-c3ccc(F)cc3)[nH]c3c(F)cc(F)cc32)C1` [Compound 191] and `O=C(CO)NC[C@H]1C[C@H](c2c(-c3ccc(F)cc3)[nH]c3c(F)cc(F)cc32)C1` [Compound 203] cannot be ordered by pIC50: over 6.60 for the first, over 6.60 for the second.

Compared with `O=C(NC[C@H]1C[C@H](c2c(-c3ccc(F)cc3)[nH]c3c(F)cc(F)cc32)C1)C1CCO1` (stereo partly drawn) [Compound 192], `O=C(NC[C@H]1C[C@@H](c2c(-c3ccc(F)cc3)[nH]c3c(F)cc(F)cc32)C1)C1CCO1` (stereo partly drawn) [Compound 220] is lower in pIC50: over 6.60 for the first, 6.00 to 6.60 for the second.

First: CC(C)(C)OC(=O)N[C@@H](CO)C(=O)NC[C@H]1C[C@H](c2c(-c3ccc(F)cc3)[nH]c3c(F)cc(F)cc32)C1 [Compound 193]
Second: C[C@H](NC(=O)OC(C)(C)C)C(=O)NC[C@H]1C[C@H](c2c(-c3ccc(F)cc3)[nH]c3c(F)cc(F)cc32)C1 [Compound 227]
The pIC50 of the first is higher: over 6.60 for the first, under 6.00 for the second. The first is the more potent here.

`N[C@@H](CO)C(=O)NC[C@H]1C[C@H](c2c(-c3ccc(F)cc3)[nH]c3c(F)cc(F)cc32)C1` [Compound 194] and `N[C@H](CO)C(=O)NC[C@H]1C[C@H](c2c(-c3ccc(F)cc3)[nH]c3c(F)cc(F)cc32)C1` [Compound 201] cannot be ordered by pIC50: over 6.60 for the first, over 6.60 for the second.

`N[C@H](C(=O)NC[C@H]1C[C@H](c2c(-c3ccc(F)cc3)[nH]c3c(F)cc(F)cc32)C1)C1CC1` [Compound 196] and `CC[C@H](N)C(=O)NC[C@H]1C[C@H](c2c(-c3ccc(F)cc3)[nH]c3c(F)cc(F)cc32)C1` [Compound 197] cannot be ordered by pIC50: over 6.60 for the first, over 6.60 for the second.

`O=C(NC[C@H]1C[C@H](c2c(-c3ccc(F)cc3)[nH]c3c(F)cc(F)cc32)C1)[C@@H]1CCN1` [Compound 198] and `O=C(NC[C@H]1C[C@H](c2c(-c3ccc(F)cc3)[nH]c3c(F)cc(F)cc32)C1)[C@@H]1CCCN1` [Compound 199] cannot be ordered by pIC50: over 6.60 for the first, over 6.60 for the second.

First: O=C(NC[C@H]1C[C@H](c2c(-c3ccc(F)cc3)[nH]c3c(F)cc(F)cc32)C1)C(F)F [Compound 200]
Second: O=C(NC[C@H]1C[C@@H](c2c(-c3ccc(F)cc3)[nH]c3c(F)cc(F)cc32)C1)C(F)F [Compound 219]
The pIC50 of the first is higher: over 6.60 for the first, 6.00 to 6.60 for the second. The first is the more potent here.

Compared with `O=C(NC[C@H]1C[C@H](c2c(-c3ccc(F)cc3)[nH]c3c(F)cc(F)cc32)C1)C1COC1` [Compound 202], `O=C(NC[C@H]1C[C@@H](c2c(-c3ccc(F)cc3)[nH]c3c(F)cc(F)cc32)C1)C1COC1` [Compound 226] is lower in pIC50: over 6.60 for the first, 6.00 to 6.60 for the second.

First: CC(=O)N[C@H](C)C(=O)NC[C@H]1C[C@H](c2c(-c3ccc(F)cc3)[nH]c3c(F)cc(F)cc32)C1 [Compound 204]
Second: CC(=O)N[C@@H](C)C(=O)NC[C@H]1C[C@H](c2c(-c3ccc(F)cc3)[nH]c3c(F)cc(F)cc32)C1 [Compound 208]
The pIC50 of the first is higher: over 6.60 for the first, 6.00 to 6.60 for the second.

First: O=C(NC[C@H]1C[C@H](c2c(-c3ccc(F)cc3)[nH]c3c(F)cc(F)cc32)C1)[C@@H]1C[C@@H](F)CN1 [Compound 205]
Second: O=C(NC[C@H]1C[C@H](c2c(-c3ccc(F)cc3)[nH]c3c(F)cc(F)cc32)C1)[C@@H]1C[C@@H](O)CN1 [Compound 225]
The pIC50 of the first is higher: over 6.60 for the first, 6.00 to 6.60 for the second.

`O=C(CCO)NC[C@H]1C[C@@H](c2c(-c3ccc(F)cc3)[nH]c3c(F)cc(F)cc32)C1` [Compound 206] and `O=C(CO)NC[C@H]1C[C@@H](c2c(-c3ccc(F)cc3)[nH]c3c(F)cc(F)cc32)C1` [Compound 210] fall in the same range of pIC50: 6.00 to 6.60 for the first, 6.00 to 6.60 for the second.

Compared with `COCCC(=O)NC[C@H]1C[C@@H](c2c(-c3ccc(F)cc3)[nH]c3c(F)cc(F)cc32)C1` [Compound 209], `N#CCC(=O)NC[C@H]1C[C@@H](c2c(-c3ccc(F)cc3)[nH]c3c(F)cc(F)cc32)C1` [Compound 230] is lower in pIC50: 6.00 to 6.60 for the first, under 6.00 for the second. The first is the more potent here.

`CC(C)(C)OC(=O)NCC(=O)NC[C@H]1C[C@@H](c2c(-c3ccc(F)cc3)[nH]c3c(F)cc(F)cc32)C1` [Compound 212] and `CC(C)(C)OC(=O)NCC(=O)NC[C@H]1C[C@H](c2c(-c3ccc(F)cc3)[nH]c3c(F)cc(F)cc32)C1` [Compound 215] fall in the same range of pIC50: 6.00 to 6.60 for the first, 6.00 to 6.60 for the second.

`C[C@H](O)C(=O)NC[C@H]1C[C@@H](c2c(-c3ccc(F)cc3)[nH]c3c(F)cc(F)cc32)C1` [Compound 213] and `CC(=O)N[C@@H](CO)C(=O)NC[C@H]1C[C@H](c2c(-c3ccc(F)cc3)[nH]c3c(F)cc(F)cc32)C1` [Compound 224] fall in the same range of pIC50: 6.00 to 6.60 for the first, 6.00 to 6.60 for the second.

First: O=C1C[C@@H](C(=O)NC[C@H]2C[C@H](c3c(-c4ccc(F)cc4)[nH]c4c(F)cc(F)cc43)C2)N1 [Compound 218]
Second: O=C1CC[C@@H](C(=O)NC[C@H]2C[C@H](c3c(-c4ccc(F)cc4)[nH]c4c(F)cc(F)cc43)C2)N1 [Compound 235]
The pIC50 of the first is higher: 6.00 to 6.60 for the first, under 6.00 for the second. The first is the more potent here.

First: O=C(NC[C@H]1C[C@H](c2c(-c3ccc(F)cc3)[nH]c3c(F)cc(F)cc32)C1)C1(O)COC1 [Compound 221]
Second: O=C(NC[C@H]1C[C@@H](c2c(-c3ccc(F)cc3)[nH]c3c(F)cc(F)cc32)C1)C1(O)CC1 [Compound 234]
The pIC50 of the first is higher: 6.00 to 6.60 for the first, under 6.00 for the second. The first is the more potent here.

First: O=C(NC[C@H]1C[C@H](c2c(-c3ccc(F)cc3)[nH]c3c(F)cc(F)cc32)C1)[C@H]1NCC[C@@H]1O [Compound 222]
Second: O=C(NC[C@H]1C[C@H](c2c(-c3ccc(F)cc3)[nH]c3c(F)cc(F)cc32)C1)[C@H]1NCC[C@H]1O [Compound 229]
The pIC50 of the first is higher: 6.00 to 6.60 for the first, under 6.00 for the second. The first is the more potent here.

First: O=C(NC[C@H]1C[C@H](c2c(-c3ccc(F)cc3)[nH]c3c(F)cc(F)cc32)C1)C1CC(F)(F)CN1 (stereo partly drawn) [Compound 223]
Second: NC(C(=O)NC[C@H]1C[C@H](c2c(-c3ccc(F)cc3)[nH]c3c(F)cc(F)cc32)C1)C(F)(F)F (stereo partly drawn) [Compound 233]
The pIC50 of the first is higher: 6.00 to 6.60 for the first, under 6.00 for the second. The first is the more potent here.

`O=C(CC1CS(=O)(=O)C1)NC[C@H]1C[C@@H](c2c(-c3ccc(F)cc3)[nH]c3c(F)cc(F)cc32)C1` [Compound 231] and `NS(=O)(=O)CCC(=O)NC[C@H]1C[C@@H](c2c(-c3ccc(F)cc3)[nH]c3c(F)cc(F)cc32)C1` [Compound 232] cannot be ordered by pIC50: under 6.00 for the first, under 6.00 for the second.

same assay, conditions: Thallium Assay (IC50), HEK 293 T-Rex inducible stable clone expressing G1 APOL1

`CC(C)(C)OC(=O)N1CC[C@H]1C(=O)NC[C@H]1C[C@H](c2c(-c3ccc(F)cc3)[nH]c3c(F)cc(F)cc32)C1` [Compound 216] and `CC(C)(C)OC(=O)N1CCC[C@H]1C(=O)NC[C@H]1C[C@H](c2c(-c3ccc(F)cc3)[nH]c3c(F)cc(F)cc32)C1` [Compound 217] fall in the same range of pIC50: 6.00 to 6.60 for the first, 6.00 to 6.60 for the second.
